Measurements published in patent US8012978B2, “Prodrugs of CC-A1065 analogs” (ImmunoGen, Inc., priority 2006, dated 2011).
Like-named read-outs stand apart in the source and are kept apart here.

What was measured:
mice = conditions: single intravenous dose of 12.5 μg/kg; cited from earlier work
[1] = cited from earlier work
HL60 cells = test: In vitro cytotoxicity towards HL60 cells; type: cell-based, human; conditions: HL60/s cells, 5-day exposure; read-out: IC50 Concentration
Description: (§1) Sulfide or disulfide-containing and mercapto-containing prodrugs of CC-1065 analogs of the present invention can be evaluated for their ability to suppress proliferation of various unwanted cell lines in vitro under incubation conditions. Cell lines such as, for example, Ramos cell line and HL60 can easily be used for the assessment of the cytotoxicity of these compounds. Cells to be evaluated can be exposed to the compounds for 24 hours and the surviving fractions of cells measured in direct assays by known methods. IC50 values can then be calculated from the results of the assays.
Cytotoxicity of the prodrugs of the present invention and their conjugates with cell binding agents can be measured after cleavage of the protecting group and conversion into the active drug. Cytotoxicity to non-adherent cell lines such as Namalwa and HL60 can be measured by back-extrapolation of cell proliferation curves as described in Goldmacher et al, 135 J. Immunol. 3648-3651 (1985). Cytotoxicity of these compounds to adherent cell lines such as A-375 and SCaBER can be determined by clonogenic assays as described in Goldmacher et al, 102 J. Cell Biol. 1312-1319 (1986). […]
• Cytotoxicity of DC07-SMe (FIG. 2) and DC1-SMe (FIG. 1D) towards Ramos and HL60/S cells has been measured in vitro with 5-day exposure. […]
• Cytotoxicity of DC1-SPy and DC07-SPy towards Ramos and HL60 cells has been measured. […]

Ramos cells = test: In vitro cytotoxicity towards Ramos cells; type: cell-based, human
Description: as §1
(§2) Cytotoxicity of the prodrugs of the present invention and their conjugates with cell binding agents can be measured after cleavage of the protecting group and conversion into the active drug. Cytotoxicity to non-adherent cell lines such as Namalwa and HL60 can be measured by back-extrapolation of cell proliferation curves as described in Goldmacher et al, 135 J. Immunol. 3648-3651 (1985). Cytotoxicity of these compounds to adherent cell lines such as A-375 and SCaBER can be determined by clonogenic assays as described in Goldmacher et al, 102 J. Cell Biol. 1312-1319 (1986).
(§3) The human cancer cell lines HL60, Namalwa, A-375, COLO205 and Ramos were obtained from the American Type Culture Collection (ATCC). Kara is a murine tumor cell line that has been stably transfected with the human CD33 antigen.
• Cytotoxicity of DC07-SMe (FIG. 2) and DC1-SMe (FIG. 1D) towards Ramos and HL60/S cells has been measured in vitro with 5-day exposure. IC50 are shown below.
• Cytotoxicity of DC1-SPy and DC07-SPy towards Ramos and HL60 cells has been measured. Results are given in FIG. 7 and IC50 are shown below.
(§4) • Cytotoxicity of DC08-SSPy towards Namalwa and Ramos cells has been measured. Results are given in FIG. 8 and IC50 are shown below.
• Cytotoxicity of MY9-6-DC07 (disulfide linked) towards antigen positive Kara and antigen negative Ramos cells has been measured. Results are given in FIG. 9 and IC50 are shown below.

[2] = Conversion of prodrug by incubation in mice serum; type: in vitro ADME
Text: (§5) The synthesis of prodrugs DC07 (7a), DC08 (8a) and DC107 (FIG. 4) is described herein. DC07 and DC08 as well as DC107 are derived from the parent drug DC1 and DC101, while DC09 (9a) can be prepared from the pegylated parent drug DC5 which was described in U.S. Pat. No. 6,756,397 B2 (FIG. 3). […] These drugs also have enhanced water solubility as compared with DC1.

[3] = Conversion of prodrug by incubation in serum or plasma; type: in vitro ADME
Text: as §5

[4] = Stability in aqueous solutions; type: physicochemical; conditions: pH 5.5 or below
Text: as §5

Namalwa cells = test: In vitro cytotoxicity towards Namalwa cells; type: cell-based, human; conditions: Namalwa cells (FIG. 8)
Text: as §2, §3, §4

A-375 cells = test: In vitro cytotoxicity towards antigen negative A-375 cells; type: cell-based, human
Text: as §2, §3
(§6) • Cytotoxicity of huC242-DC07 (thioether linked) towards antigen positive COLO 205 and antigen negative A-375 cells has been measured. Results are given in FIG. 10 and IC50 are shown below.

COLO 205 cells = test: In vitro cytotoxicity towards antigen positive COLO 205 cells; type: cell-based, human
Text: as §2, §3, §6

[5] = Ramos cells, 5-day exposure, read-out: IC50 Concentration

Molecule: COc1c(O)c2c(c3cc(C(=O)N4CCc5c4c(O)c(OC)c4[nH]c(C(=O)N6CC7CC78C6=CC(=O)c6[nH]cc(C)c68)cc54)[nH]c13)CCN2C(N)=O (stereo not shown) [CC-1065]
- toxicity (mice): delayed hepatotoxicity leading to mortality on day 50
- potency in vitro relative to doxorubicin, methotrexate and vincristine [1]: about 1000 fold

Molecule: CSSCCC(=O)Nc1ccc2[nH]c(C(=O)Nc3ccc4[nH]c(C(=O)N5C[C@@H](CCl)c6c5cc(O)c5ccccc65)cc4c3)cc2c1 [DC1-SMe, 1-[S]-(chloromethyl)-5-hydroxy-3-{{5-[5-(3-methyldithiopropionyl)indol-2-yl-carbonylamino]indole-2-yl}carbonyl}-1,2-dihydro-3H-benz[e]indole, reference compound]
- IC50 (HL60 cells): 36 pM
- IC50 (Ramos cells; [5]): 62 pM

Molecule: CSSCCC(=O)Nc1ccc2[nH]c(C(=O)Nc3ccc4[nH]c(C(=O)N5C[C@@H](CCl)c6c5cc(OC(=O)Nc5cccc(S(=O)(=O)O)c5)c5ccccc65)cc4c3)cc2c1 [DC07-SMe]
- IC50 (HL60 cells): 50 pM
- conversion into the parent drug [2]: converts it into the parent drug DC1SMe
- IC50 (Ramos cells; [5]): 120 pM

Molecule: O=C(CCS)Nc1ccc2[nH]c(C(=O)Nc3ccc4[nH]c(C(=O)N5C[C@@H](CCl)c6c5cc(OC(=O)Nc5cccc(S(=O)(=O)O)c5)c5ccccc65)cc4c3)cc2c1 [DC07]
- conversion into the parent drug [3]: can be converted into the parent drug DC1
- stability in aqueous solutions [4]: extremely stable

Molecule: (S)—N-[2-{(1-chloromethyl)-1,2-dihydro-5-[(3-hydroxysulfonylmethyl-phenyl)aminocarbonyloxy]-3H-benz(e)indol-3-yl}carbonyl]-H-indol-5-yl]-5-{[3-(2-pyridyldithio)-propanoyl]-amino}-1H-indole-2-carboxamide [DC08-SSPy]
- IC50 (Namalwa cells): 420 pM
- IC50 (Ramos cells; Ramos cells (FIG. 8), read-out: IC50): 420 pM

B1: huC242-DC07: huC242-DC07 (thioether linked) conjugate (conjugate, chains of the INN, looked up)
VH: QVQLVQSGAEVKKPGETVKISCKASDYTFTYYGMNWVKQAPGQGLKWMGWIDTTTGEPTYAQKFQGRIAFSLETSASTAYLQIKSLKSEDTATYFCARRGPYNWYFDVWGQGTTVTVSS
VL: DIVMTQSPLSVPVTPGEPVSISCRSSKSLLHSNGNTYLYWFLQRPGQSPQLLIYRMSNLVSGVPDRFSGSGSGTAFTLRISRVEAEDVGVYYCLQHLEYPFTFGPGTKLELK
modifications: DC07 drug, thioether linked
notes: huC242-DC07 (thioether linked) conjugate
- IC50 (A-375 cells): 1300 pM
- IC50 (COLO 205 cells): 35 pM
